pKi: −log10 of the molar value.
Assays:
mGluR5 = mGluR5 (UniProt P31424); assay: MGluR5 receptor binding test ([3H]-M-MPEP displacement); design: species or system rat; details: radioligand [3H]-M-MPEP (2 nM); species not given; read-out: mGlu5 Ki
Protocol: MGluR5 Receptor Binding Tests
Rat cerebro-cortical membrane preparation was used to determine the binding characteristics of reference compounds and novel compounds to the rat mGluR5. The A18 cell line expressing hmGluR5a (purchased from Euroscreen) was used to determine binding characteristics of the chemical compounds to the human mGluR5a receptor. As radioligand [3H]-M-MPEP (2 nM) was used. The nonspecific binding was determined in the presence of 10 μM M-MPEP.

rat mGluR1 = molecular target: T1, rat mGluR1 (Rattus norvegicus, UniProt P23385); assay: MGluR1 receptor binding test ([3H]R214127 displacement); details: rat cerebellar membrane; radioligand [3H]R214127 (3 nM); read-out: mGlu1 Ki
T1 construct: rat cerebellar membrane preparation was used; from tissue; host or cells: rat cerebellum (membrane preparation)
Protocol: MGluR1 Receptor Binding Test
MGluR1 receptor binding testes were performed according to modified method of Lavreysen et al. (Mol. Pharm., 2003, 63, 1082). Based on the high homology between the human and rat mGluR1 receptors, rat cerebellar membrane preparation was used to determine the binding characteristics of reference compounds and novel compounds to the rat mGluR1. As radioligand [3H]R214127 (3 nM) was used and the nonspecific binding was determined in the presence of 1 μM of R214127.
IC-50 values were determined from displacement curves by nonlinear regression analysis and were converted by equation method of Cheng and Prusoff (Biochem. Pharmacol., 1973, 22, 3099) to Ki values.

T1 sequence (P23385 19-1199): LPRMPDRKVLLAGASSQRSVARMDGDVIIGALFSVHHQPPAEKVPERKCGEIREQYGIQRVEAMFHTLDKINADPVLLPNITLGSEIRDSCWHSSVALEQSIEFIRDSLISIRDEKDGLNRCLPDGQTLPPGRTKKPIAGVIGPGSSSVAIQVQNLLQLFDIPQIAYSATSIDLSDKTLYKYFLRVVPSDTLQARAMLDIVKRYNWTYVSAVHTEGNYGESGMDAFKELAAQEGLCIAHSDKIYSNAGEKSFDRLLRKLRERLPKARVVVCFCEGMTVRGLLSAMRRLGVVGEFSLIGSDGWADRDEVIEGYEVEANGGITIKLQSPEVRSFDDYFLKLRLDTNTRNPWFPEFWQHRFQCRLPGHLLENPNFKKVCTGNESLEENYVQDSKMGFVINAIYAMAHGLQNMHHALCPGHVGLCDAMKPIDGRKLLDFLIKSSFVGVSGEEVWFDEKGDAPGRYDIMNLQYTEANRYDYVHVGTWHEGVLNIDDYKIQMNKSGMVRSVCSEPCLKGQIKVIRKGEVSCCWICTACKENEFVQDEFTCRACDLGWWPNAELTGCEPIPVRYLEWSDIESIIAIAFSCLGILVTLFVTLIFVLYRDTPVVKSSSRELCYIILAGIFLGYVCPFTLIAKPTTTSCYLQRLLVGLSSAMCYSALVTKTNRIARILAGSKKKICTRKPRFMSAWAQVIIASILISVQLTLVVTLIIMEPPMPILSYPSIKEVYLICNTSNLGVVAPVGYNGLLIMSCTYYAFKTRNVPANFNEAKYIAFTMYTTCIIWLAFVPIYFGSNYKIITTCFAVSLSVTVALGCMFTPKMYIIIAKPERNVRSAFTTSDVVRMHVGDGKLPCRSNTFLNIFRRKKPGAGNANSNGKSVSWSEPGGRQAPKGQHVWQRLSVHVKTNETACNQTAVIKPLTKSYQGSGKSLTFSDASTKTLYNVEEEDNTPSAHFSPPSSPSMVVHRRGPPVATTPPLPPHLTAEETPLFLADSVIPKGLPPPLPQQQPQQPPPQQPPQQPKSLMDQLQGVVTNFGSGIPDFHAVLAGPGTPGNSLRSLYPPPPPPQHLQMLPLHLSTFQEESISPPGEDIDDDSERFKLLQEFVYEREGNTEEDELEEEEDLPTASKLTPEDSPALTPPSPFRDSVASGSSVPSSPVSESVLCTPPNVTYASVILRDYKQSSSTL

Row | pKi (mGluR5) | pKi (rat mGluR1) | Structure (SMILES)
1 | > 6.30 |  | N#Cc1cc(F)cc(S(=O)(=O)c2sc3ncccc3c2-c2cccc(Cl)c2)c1 [Compound 136]
2 | > 6.30 |  | O=S(=O)(c1ccc(Cl)cc1)c1sc2ncccc2c1N1CCC(F)(F)CC1 [Compound 134]
3 | > 6.30 |  | O=S(=O)(c1ccc(Cl)cc1)c1sc2ncccc2c1N1CCCC(O)C1 (centres unmarked) [Compound 98]
4 | > 6.30 |  | Nc1cnc2sc(S(=O)(=O)c3ccc(Cl)cc3)c(-c3ccccc3F)c2c1 [Compound 131]
5 | > 6.30 |  | O=S(=O)(c1ccc(Cl)cc1)c1sc2ncccc2c1N1CC[C@@H](F)C1 [Compound 141]
6 | < 5.82 |  | O=C(Nc1c(S(=O)(=O)c2ccc(Cl)cc2)sc2ncccc12)N1CCCCC1 [Compound 121]
7 | 5.82 to 6.30 |  | O=S(=O)(c1ccc(Cl)cc1)c1sc2ncccc2c1-n1cncn1 [Compound 133]
8 | > 6.30 |  | COc1ccc(S(=O)(=O)c2sc3ncccc3c2-c2cccc(Cl)c2)cc1F [Compound 128]
9 | 5.82 to 6.30 |  | CN(C)c1ccnc2sc(S(=O)(=O)c3ccc(Cl)cc3)c(-c3ccc(Cl)cc3)c12 [Compound 135, 2-(4-Chloro-benzenesulfonyl)-3-(4-chloro-phenyl)-4-dimethylamino-thieno[2,3-b]pyridine]
10 | < 5.82 |  | CNC(=O)Nc1c(S(=O)(=O)c2ccc(OC)cc2)sc2ncccc12 [Compound 111]
11 | < 5.82 |  | COc1ccc(S(=O)(=O)c2sc3ncccc3c2NC(=O)N2CCC(C)CC2)cc1 [Compound 120, N-[2-(4-methoxy-benzenesulfonyl)-thieno[2,3b]pyridin-3-yl]-4-methyl-piperidine-1-carboxamide]
12 | > 6.30 |  | O=S(=O)(c1ccc(Cl)cc1)c1sc2ncc(F)cc2c1-c1ccc(Cl)cc1 [Compound 123, 2-(4-Chloro-benzenesulfonyl)-3-(4-chloro-phenyl)-5-fluoro-thieno[2,3-b]pyridine]
13 | > 6.30 |  | O=S(=O)(c1ccc(Cl)cc1)c1sc2nccc(F)c2c1-c1ccc(Cl)cc1 [Compound 102, 4-Fluor-2-(4-chloro-benzenesulfonyl)-3-(4-chloro-phenyl)-thieno[2,3-b]pyridine]
14 | > 6.30 |  | O=S(=O)(c1ccc(Cl)cc1)c1sc2ncccc2c1-c1ccccc1Cl [Compound 113]
15 | < 5.82 |  | CS(=O)(=O)NC1CCN(c2c(S(=O)(=O)c3ccc(Cl)cc3)sc3ncccc23)CC1 [Compound 116]
16 | < 5.82 |  | CN(C)c1ccc(S(=O)(=O)c2sc3nccc(N(C)C)c3c2-c2ccc(Cl)cc2)cc1 [Compound 124, 3-(4-chloro-phenyl)-4-dimethylamino-2-(4-dimethylamino-benzenesulfonyl)-thieno[2,3-b]pyridine]

The remaining lines, values behind:

Row | Structure (SMILES) | pKi (mGluR5) | pKi (rat mGluR1)
17 | COc1ccc(S(=O)(=O)c2sc3ncccc3c2-c2ccc(Cl)cc2)cc1 [Compound 48] | > 6.30 | > 6.30
18 | Cc1ccc(S(=O)(=O)c2sc3nc(F)ccc3c2-c2ccc(Cl)cc2)cc1F [Compound 89] | > 6.30 | < 5.82
19 | O=S(=O)(c1cccc(C(F)(F)F)c1)c1sc2ncccc2c1-c1ccc(Cl)cc1 [Compound 28] | > 6.30 | < 5.82
20 | N#Cc1ccc(S(=O)(=O)c2sc3ncccc3c2-c2ccc(Cl)cc2)cc1 [Compound 7] | > 6.30 | < 5.82
21 | O=S(=O)(c1ccc(F)cc1)c1sc2ncccc2c1-c1ccc(Cl)cc1 [Compound 3] | > 6.30 | < 5.82
22 | O=S(=O)(c1cccnc1)c1sc2ncccc2c1-c1ccc(Cl)cc1 [Compound 10] | > 6.30 | < 5.82
23 | N#Cc1cccc(S(=O)(=O)c2sc3ncccc3c2-c2ccc(Cl)cc2)c1 [Compound 9] | > 6.30 | > 6.30
24 | Cc1cccc(-c2c(S(=O)(=O)c3cccc(C#N)c3)sc3ncccc23)c1 [Compound 53] | > 6.30 | 5.82 to 6.30
25 | Cc1noc(C)c1S(=O)(=O)c1sc2ncccc2c1-c1ccc(Cl)cc1 [Compound 14] | < 5.82 | < 5.82
26 | N#Cc1cccc(S(=O)(=O)c2sc3nc(F)ccc3c2-c2ccc(F)cc2)c1 [Compound 75] | > 6.30 | < 5.82
27 | O=S(=O)(c1cccc(F)c1)c1sc2ncccc2c1-c1ccc(F)cc1 [Compound 78] | > 6.30 | < 5.82
28 | COc1ccc(S(=O)(=O)c2sc3ncccc3c2-c2ccc(Cl)cc2)cc1F [Compound 91] | > 6.30 | 5.82 to 6.30
29 | N#Cc1cccc(S(=O)(=O)c2sc3ncccc3c2-c2cccc(Cl)c2)c1 [Compound 38] | > 6.30 | > 6.30
30 | CC1CCN(c2c(S(=O)(=O)c3cccc(C#N)c3)sc3ncccc23)CC1 [Compound 36, 2-(3-Cyano-benzenesulfonyl)-3-(4-methyl-piperidinyl)-thieno[2,3-b]pyridine] | > 6.30 | > 6.30
31 | CCCCS(=O)(=O)c1sc2ncccc2c1-c1ccc(Cl)cc1 [Compound 11] | 5.82 to 6.30 | < 5.82
32 | Cc1ccc(S(=O)(=O)c2sc3ncccc3c2-c2ccc(F)cc2)cc1F [Compound 82] | > 6.30 | < 5.82
33 | N#Cc1cccc(S(=O)(=O)c2sc3ncccc3c2-c2ccc(F)cc2)c1 [Compound 29] | > 6.30 | 
34 | CC1CCN(c2cc(C#N)cc(S(=O)(=O)c3sc4ncccc4c3N3CCC(C)CC3)c2)CC1 [Compound 95] | 5.82 to 6.30 | 

Row | Structure (SMILES) | pKi (mGluR5) | pKi (rat mGluR1)
35 | N#Cc1cccc(S(=O)(=O)c2sc3nc(Cl)ccc3c2-c2ccc(Cl)cc2)c1 [Compound 51] | < 5.82 | 
36 | Cc1ccc(S(=O)(=O)c2sc3ncccc3c2-c2ccc(F)cc2)cc1C [Compound 24] | > 6.30 | 
37 | COc1cccc(S(=O)(=O)c2sc3ncccc3c2-c2ccc(Cl)cc2)c1 [Compound 70] | > 6.30 | 
38 | Cc1cccc(S(=O)(=O)c2sc3nc(Cl)ccc3c2-c2ccc(Cl)cc2)c1 [Compound 50] | > 6.30 | 
39 | O=S(=O)(c1cccc(F)c1)c1sc2nc(F)ccc2c1-c1ccc(Cl)cc1 [Compound 77] | > 6.30 | 
40 | Cc1ccc(S(=O)(=O)c2sc3ncccc3c2-c2ccc(F)cc2)cc1 [Compound 55] | > 6.30 | 
41 | O=S(=O)(c1ccc(Br)cc1)c1sc2ncccc2c1-c1ccc(Cl)cc1 [Compound 25] | > 6.30 | 
42 | Cc1cc(C)c(S(=O)(=O)c2sc3ncccc3c2-c2ccc(Cl)cc2)c(C)c1 [Compound 56] | < 5.82 | 
43 | O=S(=O)(c1cccc(F)c1)c1sc2ncccc2c1-c1ccc(Cl)cc1 [Compound 31] | > 6.30 | 
44 | Cc1ccc(S(=O)(=O)c2sc3ncccc3c2-c2ccc(F)cc2)cc1Cl [Compound 23] | > 6.30 | 
45 | O=S(=O)(c1ccc(Cl)cc1)c1sc2ncccc2c1N1CCOCC1 [Compound 46] | > 6.30 | 
46 | CC1CCN(S(=O)(=O)c2sc3ncccc3c2-c2ccc(Cl)cc2)CC1 [Compound 20, 3-(4-Chlorophenyl)-2-(4-methyl-piperidine-1-sulfonyl)-thieno[2,3-b]pyridine] | 5.82 to 6.30 | 
47 | O=S(=O)(c1ccc(Br)s1)c1sc2ncccc2c1-c1ccc(Cl)cc1 [Compound 45] | > 6.30 | 
48 | N#Cc1cccc(S(=O)(=O)c2sc3ncccc3c2-c2ccncc2)c1 [Compound 73] | > 6.30 | 
49 | O=S(=O)(c1cc(F)cc(F)c1)c1sc2ncccc2c1-c1ccc(Cl)cc1 [Compound 87] | > 6.30 | 
50 | COc1ccc(-c2c(S(=O)(=O)c3cccc(C#N)c3)sc3ncccc23)cc1 [Compound 84] | > 6.30 | 
51 | CC1CCN(c2c(S(=O)(=O)c3cc(F)cc(C#N)c3)sc3ncccc23)CC1 [Compound 96] | > 6.30 | 
52 | O=S(=O)(c1ccc(Cl)cc1)c1sc2ncccc2c1N1CCC(C(F)(F)F)CC1 [Compound 92] | > 6.30 | 

Reference: US20100022521A1, “COMPOUNDS” (Hansa Metallwerke AG, priority 2005, published 2010)
